# Measured values: PMC11864979, “First-in-class ultralong-target-residence-time p38α inhibitors as a mitosis-targeted therapy for colorectal cancer” (Nature Cancer, 2025)
# Several values for one entry are separate records, joined by “and”; a condition that tells them apart may be missing. Equal entries are not always repeated.
# Columns and labels:
# [1] = tested on: KAP^2D cells; experiment: SA-β-Gal senescence staining and senescence markers in CRC cells and organoids; format: cell-based, mouse; settings: 5 days
# Protocol: SA-β-Gal staining was carried out on sections of snap-frozen tumor tissues. The samples were fixed with 0.5% glutaraldehyde solution (in PBS pH 7.4) for 15 min at room temperature and then washed once with PBS and twice with 1 mM MgCl2 in PBS pH 5.5 (5 min each, at room temperature). Subsequently, the samples were incubated with X-Gal solution (2.45 mM X-Gal, 5 mM K3Fe(CN)6, 5 mM K4Fe(CN)6 and 1 mM MgCl2 in PBS pH 5.5) at 37 °C overnight protected from light. Upon staining, the samples were washed three times with PBS (5 min each), fixed with 4% formalin in PBS for 30 min and again washed with PBS (5 min each, at room temperature).
# Immunofluorescence staining on cells and organoids was performed on glass coverslips or tissue culture chambers (Sarstedt). Organoids were plated in medium containing 10% Matrigel or Cultrex BME. The cultures were fixed with 4% paraformaldehyde and stained with specific antibodies and DAPI (Vector Labs). All used antibodies and dilutions are listed in the Nature Portfolio Reporting Summary. For analyzing DNA synthesis, the Molecular Probes Click-iT EdU Alexa Fluor 555 kit was used 24 h after EdU incorporation with DAPI counterstaining. SA-β-Gal staining of cells was performed in cell culture dishes (cells) or tissue culture chambers (organoids) after fixation with 0.5% glutaraldehyde as described above. […]
# [2] = tested on: SCC321 human colon organoids; experiment: cell viability in healthy human colon organoids SCC321; format: cell-based; settings: for Cell viability (%): ED Fig. 10g, replicates
# Protocol: (§1) Primary tumor material was chopped, washed in ice-cold medium and transferred into basic medium (Supplementary Table 17), supplemented with 2.5 mg ml^−1 collagenase II (Thermo Fisher Scientific), 2.5 mg ml^−1 collagenase XI (Sigma-Aldrich), 1 mg ml^−1 Dispase II (Sigma-Aldrich), 100 µg ml^−1 DNase I and 10.5 µM Y-27632 dihydrochloride (Invitrogen). Tumor digestion was performed at 37 °C and stopped by adding medium containing 10% FBS. The mixture was centrifuged for 5 min at 300g. Red blood cells were removed with ACK lysing buffer (Thermo Fisher Scientific; 5 min at room temperature) and the pellet was resuspended in medium. Approximately 1,000 cells were resuspended and plated in 50 µl of Cultrex RGF BME, type 2 (R&D Systems). The ascites material was pelleted by centrifugation at 300g and washed three times with ice-cold PBS. Human CRC organoids were cultured in human CRC medium (Supplementary Table 17) at 37 °C and 7% CO2. Within the first week, the medium was supplemented with 10.5 µM Y-27632 dihydrochloride (Invitrogen). The human colon organoids (SCC311 and SCC321) were purchased from Sigma-Aldrich and cultured in human colon medium (Supplementary Table 17) at 37 °C and 7% CO2. They were derived from participants with the following sex and age: […].
# (§2) For in vitro treatment studies, organoids were mechanically dissociated and digested using TrypLE supplemented with 100 µg ml^−1 DNaseI and 10.5 µM Y-27632 dihydrochloride (Invitrogen) at 37 °C. A total of 1,000–2,000 single cells were plated per well in white 96-well plates (Greiner) in culture medium containing 10% GFR Matrigel or Cultrex BME. The treatment with doxycycline (5 µg ml^−1), pharmacological inhibitors or corresponding volumes of DMSO was started 24 h after plating. Doxycycline was obtained from Sigma-Aldrich. […] Cell viability was measured by means of CellTiter-Glo 3D or CellTiter-Glo 2.0 reagent (Promega) according to the manufacturers’ instructions and the Infinite M Plex reader (Tecan, i-control version 3.9.1 software). Results were normalized to vehicle (DMSO) or to shNC. For cell-doubling assays, the cell number was quantified at the corresponding time points using Guava EasyCyte flow cytometer (Luminex, CytoSoft v5.2 software).
# [3] = as above; format: cell-based; settings: male, human, replicates
# Protocol: as §1, §2
# [4] = tested on: subcutaneous human PDO6 CRCs; experiment: treatment of subcutaneous human PDO6 CRCs in CB17 Scid beige mice; format: in vivo, mouse
# Protocol: Subcutaneous injection, splenic seeding or cecum injection of organoids was performed in 8–10-week-old C57BL/6 N/Crl, Rag2^−/− (B6.Cg-Rag2^tm1.1Cgn/J), or CB17 Scid beige (CB17.Cg-Prkdc^scidLyst^bg-J/Crl) mice, obtained from Charles River. The organoids were dissociated into single cells, washed with PBS and injected in a 1:1 mixture of PBS and Matrigel. For murine organoids, 1 × 10^5 cells were injected into the left and right flanks or the spleen capsule and 2 × 10^6 cells were injected into the cecum wall. For human organoids, 4 × 10^5 cells were injected into the flanks of CB17 Scid beige mice. For splenic seeding and cecum injection, mice were anaesthetized using ketamine (100 mg kg^−1, intraperitoneally) and xylazin (10 mg/kg, intraperitoneally) in NaCl and a small laparotomy below the thorax was performed. Upon injection, the puncture region was washed with prewarmed H2O. Within the first week after operation, the mice were treated with the analgesics carprofen and metamizol. The maximum size of individual tumor nodules permitted by the regional authority of the state of Baden-Wuerttemberg (Regierungspraesidium Tübingen: subcutaneous tumor nodules, 1 cm; other tumor nodules, 0.5 cm) was not exceeded.
# No mice were excluded during treatment studies. […] GFP imaging of tumors was performed using a Hamamatsu imaging system.
# [5] = tested on: KAP-shMapk14 and KAP-shNC organoids; experiment: cell viability in KAP-shMapk14 and KAP-shNC organoids treated with doxycycline and 2015; format: cell-based, mouse; set-up: Cell viability (%): concentration or dose not given beside the values; settings: for Cell viability (%): individual replicates, relative to shNC + DMSO
# Protocol: To produce retroviral particles, Phoenix packaging cells were transfected with retroviral DNA (pRT3GEPIR and pR-BRAF^V600E-Puro) through calcium phosphate transfection. The viral supernatant, supplemented with polybrene (5 µg ml^−1) was applied on cells or dissociated organoids and the infected cultures were selected with puromycin (3 µg ml^−1). Expression of shRNAs and GFP was induced with 5 µg ml^−1 doxycycline (Sigma).
# as §2
# [6] = cell viability after 2015, Navitoclax or 2015 + Navitoclax (Fig. 5f); format: cell-based; set-up: concentration or dose not given beside the values; settings: replicates
# [7] = tested on: KMP primary CRCs; experiment: survival of mice with KMP primary CRCs (cecum injection); format: in vivo, mouse
# Protocol: Subcutaneous injection, splenic seeding or cecum injection of organoids was performed in 8–10-week-old C57BL/6 N/Crl, Rag2^−/− (B6.Cg-Rag2^tm1.1Cgn/J), or CB17 Scid beige (CB17.Cg-Prkdc^scidLyst^bg-J/Crl) mice, obtained from Charles River. The organoids were dissociated into single cells, washed with PBS and injected in a 1:1 mixture of PBS and Matrigel. For murine organoids, 1 × 10^5 cells were injected into the left and right flanks or the spleen capsule and 2 × 10^6 cells were injected into the cecum wall. For human organoids, 4 × 10^5 cells were injected into the flanks of CB17 Scid beige mice. For splenic seeding and cecum injection, mice were anaesthetized using ketamine (100 mg kg^−1, intraperitoneally) and xylazin (10 mg/kg, intraperitoneally) in NaCl and a small laparotomy below the thorax was performed.
# No mice were excluded during treatment studies.
compound,measurement,setting,value
CNC(=O)c1ccc2c(c1)C(=O)c1ccc(Nc3ccc(F)c(NC(=O)C4CC4)c3)cc1CC2 [Compound 2015],"senescence (SA-β-Gal, p16^Ink4a, HMGA2) (in words)",[1],clear senescence phenotype
same,Cell viability (%),"[2]; 2015 0,5 µM, 5 µM",115.51% and 112.50%
same,Cell viability (%),"[2]; 2015 0,25 µM, 25 µM",100.29% and 98.19%
same,Cell viability (%),[2]; 2015 1 µM,83.04% and 75.31%
same,response of healthy human colon culture (in words),"[2]; SCC321, 4 d",only a very weak response
same,viability at 25 µM,"[3]; healthy human colon organoids SCC321, 2015 0,25 µM, ED Fig. 10g",105%
same,viability at 5 µM,"[3]; healthy human colon organoids SCC321, 2015 0, ED Fig. 10g",109%
same,viability at 1 µM,"[3]; healthy human colon organoids SCC321, 2015 1 µM, ED Fig. 10g",86.9%
same,Tumor weight,"[4]; individual subcutaneous PDO6 tumors, treated 4 weeks",25 g and 16 g and 4 g and 32 g
same,tumor size of PDO6-derived CRCs (in words),[4]; treated for 4 weeks,strong reduction in tumor size
same,response of KAP-shMapk14.2605 organoids (in words),[5]; doxycycline-induced Mapk14-shRNA expression,did not respond
same,Cell viability (%),[5]; shMapk14.2605 + 2015,22.20% and 48.13% and 45.94%
same,Cell viability (%),[5]; shNC + 2015,31.98% and 25.43% and 20.36%
same,Cell viability,[6],58.51% and 44.25% and 42.17%
same,Survival (d of treatment),"[7]; individual mice, KMP primary CRC, treatment started 9 days after transplantation",24 days and 15 days and 11 days and 25 days and 21 days and 13 days and 18 days
same,Kaplan–Meier event entry in 2015 (1 or 0),"[7]; individual mice, KMP primary CRC, meaning of 1/0 not given",1 and 0
same,survival of mice with KMP primary CRC (in words),[7]; start 9 days after organoid injection,significantly prolonged survival
